Results on 1 molecule are retold here after PMC9744290, “Two apicoplast dwelling glycolytic enzymes provide key substrates for metabolic pathways in the apicoplast and are critical for Toxoplasma growth” (PLOS Pathogens, 2022).

This assay has as its target T1, PGK2 (Toxoplasma gondii, UniProt A0A7J6KGR7).
T1 construct: gene TGRH88_001020; His-SUMO fusion, E. coli BL21(DE3), His-tag resin
T1 sequence (A0A7J6KGR7 1-593): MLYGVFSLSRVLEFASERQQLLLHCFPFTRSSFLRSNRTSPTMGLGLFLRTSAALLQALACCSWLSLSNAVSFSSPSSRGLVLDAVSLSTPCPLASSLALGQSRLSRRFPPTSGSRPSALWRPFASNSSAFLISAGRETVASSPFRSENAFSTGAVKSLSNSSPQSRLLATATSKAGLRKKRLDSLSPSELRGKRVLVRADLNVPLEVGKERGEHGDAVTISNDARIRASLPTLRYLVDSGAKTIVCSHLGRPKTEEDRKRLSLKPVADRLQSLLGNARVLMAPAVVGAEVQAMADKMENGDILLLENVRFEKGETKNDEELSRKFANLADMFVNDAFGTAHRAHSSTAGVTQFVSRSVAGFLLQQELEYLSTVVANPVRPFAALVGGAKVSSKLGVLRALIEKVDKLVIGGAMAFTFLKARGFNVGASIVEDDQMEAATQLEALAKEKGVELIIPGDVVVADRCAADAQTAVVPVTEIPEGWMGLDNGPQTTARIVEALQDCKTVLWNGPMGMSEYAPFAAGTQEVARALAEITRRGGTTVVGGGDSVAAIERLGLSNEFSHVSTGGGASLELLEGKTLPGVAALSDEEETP
The assay can be described thus: NADH-coupled colorimetric PGK assay kit, OD340. Format: biochemical. To be noted: reverse direction of PGK; 0-960 uM substrate, 5 ug/ml enzyme, 2 min.

Molecules are shown by their SMILES.

For `O=C(O)[C@H](O)COP(=O)(O)O` [3-phosphoglycerate], the “NADH-coupled colorimetric PGK assay kit, OD340” value is given as “assayed with recombinant enzymes under different concentrations of 3-phosphoglycerate (3-PG)”.
